Experimental data from US5198568A, “Compounds useful in enzymatic resolution systems and their preparation” (priority 1991, dated 1993).
Structures can show the parent of a compound that is named as a salt.

Key:
[1] = test system: Pig Liver Esterase (Sigma E-3128, Enzyme E); assay: Homogeneous aqueous enzymatic resolution (ester hydrolysis), Enzyme E; assay type: biochemical; conditions: 30 mg Pig Liver Esterase (E)
[2] = test system: Protease XXIII from Aspergillus oryzae (Sigma, Enzyme A); assay: Homogeneous aqueous enzymatic resolution (ester hydrolysis), Enzyme A; assay type: biochemical
Protocol: No further purification was performed.

[3] = biological target: T1, Protease XXVII, Nagarse (Sigma, Enzyme D) (Bacillus amyloliquefaciens, UniProt P00782); assay: Homogeneous aqueous enzymatic resolution (ester hydrolysis), Enzyme D; assay type: biochemical; conditions: 150 mg enzyme D
T1 construct: purchased Sigma
T1 sequence (P00782 108-382): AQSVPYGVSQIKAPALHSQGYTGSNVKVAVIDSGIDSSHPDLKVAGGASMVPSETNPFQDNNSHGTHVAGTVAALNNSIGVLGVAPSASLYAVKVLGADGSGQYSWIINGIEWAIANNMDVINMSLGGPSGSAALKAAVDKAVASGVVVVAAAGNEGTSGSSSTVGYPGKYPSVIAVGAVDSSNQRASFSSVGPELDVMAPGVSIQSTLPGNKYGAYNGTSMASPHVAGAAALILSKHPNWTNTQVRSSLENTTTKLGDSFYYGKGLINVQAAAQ

[4] = biological target: T2, Protease VIII, Subtilopeptidase A (subtilisin Carlsberg) (Sigma, Enzyme B) (Bacillus licheniformis, UniProt P00780); assay: Homogeneous aqueous enzymatic resolution (ester hydrolysis), Enzyme B; assay type: biochemical; conditions: for % e.e.: acid product
T2 sequence (P00780 106-379): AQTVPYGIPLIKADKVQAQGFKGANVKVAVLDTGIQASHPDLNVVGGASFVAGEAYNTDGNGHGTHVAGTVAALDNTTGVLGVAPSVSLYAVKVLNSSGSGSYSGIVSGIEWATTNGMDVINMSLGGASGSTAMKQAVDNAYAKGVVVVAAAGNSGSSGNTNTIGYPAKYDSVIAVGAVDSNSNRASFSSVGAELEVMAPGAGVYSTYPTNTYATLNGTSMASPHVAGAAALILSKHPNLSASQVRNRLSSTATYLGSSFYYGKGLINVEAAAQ

[5] = test system: protease Prozyme 6 from Aspergillus oryzae (Amano, Enzyme F); assay: Homogeneous aqueous enzymatic resolution (ester hydrolysis), Enzyme F; assay type: biochemical; conditions: for % CONVERSION: 10 mmol ester in 100 ml 0.2M buffer pH 7.0, 25 C
Protocol: (§1) The enzymatic reaction mixtures were capped and briefly shaken until all the substrate had dissolved, and the enzyme had completely dissolved or dispersed. […] Evaporation of the ether left a white solid. Rotations were measured at c=1 in CHCl3.
as §1
The reaction was started by adding 100 mg of the protease (F) from the fungus Aspergillus oryzae (from Amano Enzyme Corporation, Prozyme 6, 60,000 units per mg of solid).
After 20 hours at room temperature, the solution was acidified to pH 2 and extracted with 3 volumes of diethyl ether. The aqueous phase was saved for subsequent workup. The ether phase was washed with two volumes of distilled water and then one volume of saturated sodium chloride, and then it was dried over MgSO4 and subsequently evaporated to dryness. The resolved ibuprofen product recovered was 930 mg of white powder, indicating 45% conversion of racemic ester to acid. The optical rotation was -0.580° (measured at c=1 in ethanol), indicating the R isomer of ibuprofen.
35 mg of protease Enzyme F, as the commercial preparation Prozyme 6, were added to the aqueous solution. The reaction flask was capped, and briefly shaken until all the enzyme had dissolved or dispersed. […] The resulting mixture was diluted with one volume of water and was extracted with diethyl ether (2 times 200 ml). The ether layers were combined and backwashed with water (2 times 200 ml), saturated NaCl solution (200 ml), and then dried over MgSO4.
In this control run, a 0.5M ester solution of (1) was prepared in 325 ml of 0.1M sodium phosphate buffer (pH 7.0). The reaction was started by adding 3 gm of the above enzyme (F). The pH was controlled at 7.0 with 8.22M sodium hydroxide. After 6.49 hours at 30 ° C., 6.63 ml of hydroxide were added, indicating 37.7% conversion. The reaction was allowed to continue overnight and, after 23.1 hours, a total of 7.2 ml of sodium hydroxide were added, indicating 40.9% conversion.

[6] = test system: lipase derived from Candida cylindracea (Genzyme, Enzyme G); assay: Asymmetric hydrolysis in a multiphase membrane bioreactor, Enzyme G
Protocol: 3.0 grams of the lipase were dissolved in 500 mls of distilled water; this solution was recirculated in an ultrafiltration mode from the shell into the lumen and back to the reservoir for 30 minutes. The ultrafiltrate was then collected until the reservoir was empty, and methyl isobutyl ketone (MIBK) was then pumped into the shell and recirculated at 400-450 ml/min with a 5-7 psig shell pressure to remove any remaining enzyme solution from the shell.
A reactor was prepared as described in Example 6.2.2.5 (naproxen) using essentially the same mode of loading the enzyme, 3.0 grams of Candida lipase (Enzyme G, from Genzyme Corporation) were ultrafiltered from the shell into the lumen. The enzyme was then washed with 2-3 l of distilled water and 1 l of potassium phosphate buffer (0.10 M, pH 7.7). The module was then drained.
No organic solvent was required as the substrate is already a water-immiscible liquid. Phosphate buffer was immediately pumped into the lumen and recirculated at 400-450 ml/min.
The reaction was monitored by following acid production based on hydroxide titration data. […] The aqueous buffer was replaced after 76 minutes and acidified to pH 2.0 with concentrated HCl in the presence of about 200 ml of chloroform.

[7] = test system: Candida lipase (Sigma L-1754, Enzyme H); assay: Asymmetric hydrolysis in a multiphase membrane bioreactor, Enzyme H; conditions: 210 gm neat ester
Protocol: The enzyme solution was recirculated from the shell side to the lumen side and back to the solution reservoir in an ultra-filtration mode. […] The procedure was completed in one hour.
After loading the enzyme to the reactor, recirculation of 210 gm. […] The recirculation rate was 400 ml/min and the average pressure on the shell compartment was kept at 6.5 psi by adjusting a throttling valve at the shell side exit. On the lumen side 1 liter of 0.05M K was recirculated at a rate of 400 ml/min. The pH of the aqueous reservoir was kept at 7.0 by addition of 1M NaOH. The reactor was run continuously for 6.8 days.
The reaction progress and rate were monitored by following the caustic consumption. […] The initial ester substrate to the reactor had no optical rotation.

[8] = 0.010 mol ester in 100 ml 0.2M sodium phosphate pH 7.8

In the case of CC(C)Cc1ccc(C(C)C(=O)OCCCS(=O)(=O)O)cc1 (racemic) [Compound 3, Potassium Salt of 3-SulfopropylEster of 2-(4-Isobutylphenyl)propanoic Acid], the “% CONVERSION” value [1, 8] is reported as 12.1%, the “% e.e.” value ([1]; acid product, pH 7.8) is reported as 88.0% and the “% CONVERSION” value ([2]; 100 mg enzyme A, 10 mmol ester in 100 ml 0.2 M phosphate buffer pH 7.0, 20-22 C, 20 hours) is reported as 50.0%. The “conversion of the racemic ester to acid” value ([2]; 1.00 gm enzyme A, about 1M ester, pH 7.0, room temperature, 23.9 hours, by NaOH titration) was 29%, the “% CONVERSION” value [3, 8] was 32.0% and the “% e.e.” value ([3]; acid product, pH 7.8) was 91.0%.
With CC(C)Cc1ccc(C(C)C(=O)OCC[N+](C)(C)C)cc1 (racemic) [Compound 10, Iodide Salt of 2-(N,N,N-Trimethylammonium)ethyl Ester of 2-(4-Isobutylphenyl)propanoic Acid] the “% e.e.” value ([2]; acid product, 100 mg enzyme A, pH 7.0, 20-22 C, 20 hours) was greater than 99%.
With CC(CSC(=O)c1ccccc1)C(=O)OCS(=O)(=O)O (racemic) [Compound 16, Potassium Salt of the Sulfomethyl Ester of (±)-S-3-Benzoylthio-2-methylpropanoic Acid] the “% CONVERSION” value ([2]; 100 mg enzyme A, 10.0 mmol ester in 100 ml 0.2M buffer pH 7.0, 25 C, 18 hours) was 53%, the “% e.e.” value ([2]; acid product, 100 mg enzyme A, pH 7.0, 25 C, 18 hours) was 3% and the “% CONVERSION” value ([4]; 100 mg enzyme B, 10.0 mmol ester in 100 ml 0.2M buffer pH 7.0, 25 C, 18 hours) was 26%. The “% e.e.” value ([4]; 100 mg enzyme B, pH 7.0, 25 C, 18 hours) was 10%.
In the case of CC(C)Cc1ccc(C(C)C(=O)OCCS(=O)(=O)O)cc1 (stereo not shown) [Compound 2, Sodium Salt of 2-Sulfoethyl Ester of 2-(4-Isobutylphenyl)propanoic Acid], the “% e.e.” value ([2]; acid product, 150 mg enzyme A, 125 ml, pH 7.0, 18 hours) is reported as greater than 99% and the “% e.e.” value ([4]; 150 mg enzyme B, 125 ml, pH 7.0, 18 hours) is reported as 90.0%.
For CC(C)Cc1ccc(C(C)C(=O)OCCCCS(=O)(=O)O)cc1 (stereo not shown) [Compound 4, Potassium Salt of 4-Sulfobutyl Ester of 2-(4-Isobutylphenyl)propanoic Acid], the “% CONVERSION” value ([4]; 100 mg enzyme B, 10 mmol ester in 100 ml 0.2 M phosphate buffer pH 7.0, 20-22 C, 20 hours) was 20.0%.
In the case of COc1ccc2cc(C(C)C(=O)OCCCS(=O)(=O)O)ccc2c1 (stereo not shown) [Compound 7, Potassium Salt of the 3-Sulfopropyl Ester of 2-(6-Methoxy-2-naphthyl)propanoic Acid], the “% e.e.” value ([2]; naproxen acid product, 150 mg enzyme A, pH 7.8, 18 hours (Table 12)) is reported as 78.0%.
COc1ccc2cc(C(C)C(=O)OCCS(=O)(=O)O)ccc2c1 (stereo not shown) [Compound 8, Potassium Salt of 2-Sulfoethyl Ester of 2-(6-Methoxy-2-naphthyl) propanoic Acid] was tested, and the “% e.e.” value ([2]; naproxen acid product, 150 mg enzyme A, pH 7.8 (Table 13)) was 59.0%.
COc1ccc2cc(C(C)C(=O)OCS(=O)(=O)O)ccc2c1 (stereo not shown) [Compound 9, Sodium Salt of Sulfomethyl Ester of 2-(6-Methoxy-2-naphthyl)propanoic Acid] was tested, and the “enantiomeric excess of S isomer of Naproxen (from unconverted ester hydrolyzed at pH 12)” value ([2]; 100 mg enzyme A, pH 7.5, 25 degrees, 16 hours, from rotation in CHCl3) was 45.5%.
With COc1ccc2cc(C(C)C(=O)OCC[N+](C)(C)C)ccc2c1 (stereo not shown) [Compound 11, Methyl Sulfate Salt of 2-(N,N,N-Trimethylammonium)ethyl Ester of 2-(6-Methoxy-2-naphthyl)propanoic Acid] the “% CONVERSION” value ([5]; 100 mg Prozyme 6 (F), 18 hours) was 24.3% and the “% e.e.” value ([5]; naproxen acid product, 100 mg Prozyme 6 (F), pH 7.0, 25 C, 18 hours) was 34.0%.
For COc1ccc2cc(C(C)C(=O)OCCC[N+](C)(C)C)ccc2c1 (stereo not shown) [Compound 12, Methyl Sulfate Salt of 3-(N,N,N-Trimethylammonium)propyl Ester of 2-(6-Methoxy-2-naphthyl)propanoic Acid], the “% CONVERSION” value ([5]; 100 mg Prozyme 6 (F), 18 hours) was 34.0%.
For CC(Oc1ccc(Cl)cc1)C(=O)OCS(=O)(=O)O (stereo not shown) [Compound 17, Sodium Salt of the Sulfomethyl Ester of 2-(4-Chlorophenoxy)propanoic Acid], the completion of reaction ([5]; 35 mg Prozyme 6 (F), 10 mmol ester in 100 ml 0.2M sodium phosphate pH 7.0, 30 C, 1 hour) was 22.5%.
For COC(=O)C(C)c1ccc2cc(OC)ccc2c1 (stereo not shown) [Compound 18, Methyl Ester of 2-(6-Methoxy-2-naphthyl)propanoic Acid], the “average rate of hydrolysis, first 45 minutes” value ([6]; 0.75M ester in MIBK, 3.0 grams lipase in 0.85 m2 module, pH 8.50) was 35 µmol/h.
For CC(C)Cc1ccc(C(C)C(=O)OCC(F)(F)F)cc1 (stereo not shown) [Compound 19, 2,2,2-Trifluoroethyl Ester of 2-(4-Isobutylphenyl)propanoic Acid], the “average hydrolytic rate, first 60 minutes” value ([6]; neat liquid ester, 3.0 grams lipase, pH 7.7) was 160 µmol/min, the “average hydrolysis rate, next 76 hours” value ([6]; neat liquid ester, 3.0 grams lipase, pH 7.7, by titrimetry) was 21 µmol/min and the conversion to acid ([6]; neat liquid ester, 3.0 grams lipase, pH 7.7, over the 76 hours) was “about 9.8%”.
In the case of CCCCCCCCOC(=O)C(C)Cl (stereo not shown) [Compound 20, Octyl Ester of 2-Chloropropanoic Acid], the “rate of ester hydrolysis at the beginning of the experiment” value ([7]; 30 grams lipase loaded, pH 7.0) is reported as 186 µmol/min, the “initial ester hydrolyzed at termination” value ([7]; pH 7.0, run 6.8 days) is reported as 41% and the “rate of ester hydrolysis at the end of the experiment” value ([7]; pH 7.0, run 6.8 days) is reported as 25 µmol/min.
